Test results published in ChEMBL document CHEMBL1155824, “Synthesis and antitumor activity of cyclodepsipeptide zygosporamide and its analogues” (Bioorg Med Chem Lett, 2008).

Tests used:
Format in all cases: functional, cell-based
A549 = experiment: Cytotoxicity against human A549 cells
MDA-MB-231 = experiment: Cytotoxicity against human MDA-MB-231 cells
SF-295 = experiment: Cytotoxicity against human SF295 cells
HCT-116 = experiment: Cytotoxicity against human HCT116 cells
SF-268 = experiment: Cytotoxicity against human SF268 cells

Row | SMILES | IC50 (A549) | IC50 (MDA-MB-231) | IC50 (SF-295) | IC50 (HCT-116) | IC50 (SF-268)
1 | CC(C)C[C@@H]1OC(=O)[C@H](Cc2ccccc2)NC(=O)[C@H](C)NC(=O)[C@@H](CC(C)C)NC(=O)[C@H](Cc2ccccc2)NC1=O | > 50 µM | > 50 µM | > 50 µM | > 50 µM | > 50 µM
2 | CC(C)C[C@@H]1NC(=O)[C@@H](CC(C)C)NC(=O)[C@H](Cc2ccccc2)NC(=O)[C@H](CC(C)C)OC(=O)[C@H](C)NC1=O | > 50 µM | 2.8 µM | 6 µM | 2.7 µM | 8.8 µM
3 | CC(C)C[C@@H]1NC(=O)[C@@H](CC(C)C)NC(=O)[C@H](C)NC(=O)[C@H](CC(C)C)OC(=O)[C@H](Cc2ccccc2)NC1=O | 31 µM | 7.5 µM | 19.7 µM | > 50 µM | 35 µM
4 | CC(C)C[C@@H]1NC(=O)[C@@H](C)NC(=O)[C@H](Cc2ccccc2)NC(=O)[C@H](CC(C)C)OC(=O)[C@H](Cc2ccccc2)NC1=O | > 50 µM | 5 µM | 8.7 µM | 2.1 µM | 10.4 µM
5 | CC(C)C[C@@H]1NC(=O)[C@@H](CC(C)C)NC(=O)[C@H](Cc2ccccc2)NC(=O)[C@H](C)OC(=O)[C@H](Cc2ccccc2)NC1=O | > 50 µM | > 50 µM | 32 µM | 7.8 µM | 31 µM
6 | CC(C)C[C@@H]1NC(=O)[C@H](Cc2ccccc2)NC(=O)[C@H](CC(C)C)NC(=O)[C@@H](CC(C)C)NC(=O)[C@H](Cc2ccccc2)NC1=O | 21 µM | > 50 µM | 14.4 µM | 1.9 µM | 20.5 µM
7 | CC(=O)O[C@H]1C(=O)[C@@]2(C)[C@H]([C@H](OC(=O)c3ccccc3)[C@]3(O)C[C@H](OC(=O)[C@H](O)[C@@H](NC(=O)c4ccccc4)c4ccccc4)C(C)=C1C3(C)C)[C@]1(OC(C)=O)CO[C@@H]1C[C@@H]2O [PACLITAXEL] | 0.0231 µM | 0.0405 µM | 0.29 µM | 0.0136 µM | 0.0153 µM
8 | CC(C)C[C@@H]1NC(=O)[C@@H](CC(C)C)NC(=O)[C@H](Cc2ccccc2)NC(=O)[C@H](CC(C)C)OC(=O)[C@H](Cc2ccccc2)NC1=O [ZYGOSPORAMIDE] | 2.5 µM | 5.7 µM | 4.2 µM | 22 µM | 4.6 µM
